Laboratory results reported in patent US20250163056A1, “NONMUSCLE MYOSIN II INHIBITORS” (The University of Florida Research Foundation, Inc., priority 2018, published 2025).

Key:
[1] = Photostability, percentage remaining undegraded under illumination or in the dark; details: for Photostability 4 hours: percentage remaining undegraded after 4 hours illumination; for Photostability 24 hours: percentage remaining undegraded after 24 hours illumination; for Photostability Dark (24 h): percentage remaining undegraded in the dark
Rabbit skeletal myosin = assay: Skeletal muscle myosin II actin-activated ATPase assay; assay type: biochemical; details: 20 nM skeletal muscle myosin II; read-out: SKMMII KI
Outline: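 NADH-coupled (PK/LDH) actin-activated ATPase at 25 °C with 20 nM rabbit skeletal myosin II, 10 μM F-actin, 1 mM ATP, 1 mM PEP, 220 μM NADH in MOPS pH 7.0, MgCl2, EGTA, BSA, DTT, 0.5% DMSO. NADH fluorescence followed 30 min; inhibitory constants from 16-point triplicate curves (top 50 uM), quadratic one-to-one fit.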

Bovine cardiac myosin = Bovine cardiac myosin (Bos taurus (Bovine), UniProt Q9BE39); assay: Cardiac muscle myosin II actin-activated ATPase assay (NADH-coupled); assay type: biochemical; set-up: key to Ratio CMMII:NMII Ki/EC50: NMII-sel: no Ki value for cardiac myosin II could be determined; the compounds had no detectable inhibitory properties versus the cardiac myosin II; details: for Ki: 300 nM cardiac myosin, 10 μM actin, 25° C., read-out: CMMII KI; for Ratio CMMII:NMII Ki/EC50: cardiac myosin II Ki over nonmuscle myosin II EC50
Sequence of Bovine cardiac myosin (Q9BE39 whole entry): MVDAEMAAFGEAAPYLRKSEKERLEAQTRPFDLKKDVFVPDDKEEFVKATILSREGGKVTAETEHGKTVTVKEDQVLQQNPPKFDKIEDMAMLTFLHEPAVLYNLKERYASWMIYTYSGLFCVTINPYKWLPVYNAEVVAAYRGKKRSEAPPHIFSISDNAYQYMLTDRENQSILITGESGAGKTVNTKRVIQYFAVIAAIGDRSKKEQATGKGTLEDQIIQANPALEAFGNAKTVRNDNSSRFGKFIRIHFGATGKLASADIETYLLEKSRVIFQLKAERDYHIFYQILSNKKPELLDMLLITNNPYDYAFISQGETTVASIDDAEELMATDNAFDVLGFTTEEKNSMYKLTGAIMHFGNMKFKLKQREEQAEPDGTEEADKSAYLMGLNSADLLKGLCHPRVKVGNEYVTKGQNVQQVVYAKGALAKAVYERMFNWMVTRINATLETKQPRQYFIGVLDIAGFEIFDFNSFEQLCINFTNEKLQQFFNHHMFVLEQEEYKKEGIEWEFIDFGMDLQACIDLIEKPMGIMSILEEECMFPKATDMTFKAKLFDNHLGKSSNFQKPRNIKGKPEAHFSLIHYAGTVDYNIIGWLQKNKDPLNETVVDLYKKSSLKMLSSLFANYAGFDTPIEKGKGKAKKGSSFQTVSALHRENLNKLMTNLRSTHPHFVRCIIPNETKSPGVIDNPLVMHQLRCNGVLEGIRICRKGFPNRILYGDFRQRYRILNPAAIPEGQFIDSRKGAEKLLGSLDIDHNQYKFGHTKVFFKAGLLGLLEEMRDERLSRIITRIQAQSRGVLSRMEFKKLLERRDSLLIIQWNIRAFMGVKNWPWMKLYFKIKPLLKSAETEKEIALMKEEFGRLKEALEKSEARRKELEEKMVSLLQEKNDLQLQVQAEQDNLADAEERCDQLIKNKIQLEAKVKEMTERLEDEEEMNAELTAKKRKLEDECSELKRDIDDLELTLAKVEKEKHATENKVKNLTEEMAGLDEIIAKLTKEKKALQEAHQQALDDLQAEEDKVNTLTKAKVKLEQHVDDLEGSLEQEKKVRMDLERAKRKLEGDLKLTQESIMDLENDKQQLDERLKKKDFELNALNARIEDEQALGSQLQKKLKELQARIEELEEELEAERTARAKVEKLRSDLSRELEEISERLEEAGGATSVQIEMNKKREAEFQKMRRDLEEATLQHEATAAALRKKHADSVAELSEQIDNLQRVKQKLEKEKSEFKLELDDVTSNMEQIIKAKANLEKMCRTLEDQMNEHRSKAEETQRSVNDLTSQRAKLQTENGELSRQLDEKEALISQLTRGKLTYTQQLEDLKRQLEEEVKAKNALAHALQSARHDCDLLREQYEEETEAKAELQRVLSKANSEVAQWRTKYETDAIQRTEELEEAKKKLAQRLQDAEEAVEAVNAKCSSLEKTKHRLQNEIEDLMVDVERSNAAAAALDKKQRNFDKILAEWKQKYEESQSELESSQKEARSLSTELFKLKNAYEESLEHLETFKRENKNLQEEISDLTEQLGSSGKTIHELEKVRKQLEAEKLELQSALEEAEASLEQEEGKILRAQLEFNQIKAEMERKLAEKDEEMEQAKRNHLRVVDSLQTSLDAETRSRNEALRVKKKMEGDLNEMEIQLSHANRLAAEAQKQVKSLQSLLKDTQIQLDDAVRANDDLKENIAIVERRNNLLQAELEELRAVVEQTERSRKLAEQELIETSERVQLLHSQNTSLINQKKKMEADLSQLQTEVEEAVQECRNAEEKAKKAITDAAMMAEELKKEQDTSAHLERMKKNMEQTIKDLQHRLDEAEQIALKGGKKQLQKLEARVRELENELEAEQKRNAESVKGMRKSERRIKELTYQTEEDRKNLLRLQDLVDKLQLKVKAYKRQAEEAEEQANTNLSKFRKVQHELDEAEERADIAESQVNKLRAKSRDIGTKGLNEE
Sequence of Bovine cardiac myosin (P85100 whole entry partner): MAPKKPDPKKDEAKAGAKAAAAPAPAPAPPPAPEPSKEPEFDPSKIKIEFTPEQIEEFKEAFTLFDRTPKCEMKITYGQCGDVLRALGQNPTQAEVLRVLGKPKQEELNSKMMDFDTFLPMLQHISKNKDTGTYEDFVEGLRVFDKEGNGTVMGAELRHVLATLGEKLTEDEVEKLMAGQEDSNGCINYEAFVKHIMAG
Sequence of Bovine cardiac myosin (Q3SZE5 whole entry partner): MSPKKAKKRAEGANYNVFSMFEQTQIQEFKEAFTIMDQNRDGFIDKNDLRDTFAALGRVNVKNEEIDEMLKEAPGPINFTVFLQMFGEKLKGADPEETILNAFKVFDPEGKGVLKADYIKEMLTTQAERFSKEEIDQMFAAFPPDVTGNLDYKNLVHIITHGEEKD
Outline: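 NADH-coupled (PK/LDH) assay at 25° C: 300 nM bovine cardiac myosin, 10 μM rabbit F-actin, 1 mM ATP, 1 mM PEP, 220 μM NADH, MOPS pH 7.0, 0.5% DMSO. NADH fluorescence was followed for 30 min; Ki values came from 16-point triplicate data (top 50 uM) fitted to a quadratic one-to-one binding model.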

Row | Structure (SMILES) | Photostability 4 hours [1] [%] | Photostability 24 hours [1] [%] | Photostability Dark (24 h) [1] [%] | Ki (Rabbit skeletal myosin) [µM] | Ki (Bovine cardiac myosin) [µM] | Ratio CMMII:NMII Ki/EC50 (Bovine cardiac myosin)
1 | Cc1ccc2c(c1)C(=O)[C@]1(O)CCN(c3ccc4nc(CO)ccc4c3)C1=N2 [BPN-0028554] | 87.6 | 35.9 | 97.6 | 9 | 120 | 12.4
2 | Cc1cc2c(cc1C)C(=O)[C@]1(O)CCN(c3ccc4oc(CO)cc4c3)C1=N2 [BPN-0028555] | 4.7 | <1 | 93.6 | 1.5 | 4.6 | 6.1
3 | Cc1cc(N2CC[C@@]3(O)C(=O)c4cc(C)c(C)cc4N=C23)ccn1 [BPN-0028616] | 93.2 | 71.0 | 89.4 | 11 | 200 | 13.3
4 | CCC1=CC2N=C3N(c4ccc5ncccc5c4)CC[C@@]3(O)C(=O)C2S1 (stereo partly drawn) [BPN-0028625] | 84.4 | 84.6 | 81.8 | 8.9 | 300 | 56.6
5 | Cc1ccc2c(c1)C(=O)[C@]1(O)CCN(c3cnc(C#N)c(Cl)c3)C1=N2 [BPN-0028646] | >99 | 97.1 | 98.2 | 1.3 |  | NMII-sel
6 | COc1ccc(N2CC[C@@]3(O)C(=O)c4cc(C)c(C)cc4N=C23)cn1 [BPN-0028648] | 52.5 | <1 | 98.4 | 0.26 | 4.4 | 3.4
7 | Cc1cc2c(cc1C)C(=O)[C@]1(O)CCN(c3cnc(CO)c(Cl)c3)C1=N2 [BPN-0028649] | 96.7 | 73.1 | 98.4 | 2.7 | 30 | 7.1
8 | CNc1cc(N2CC[C@@]3(O)C(=O)c4cc(C)c(C)cc4N=C23)ccn1 [BPN-0028650] | 88.7 | 62.6 | 93.4 | 12 | 40 | 4.4
9 | Cc1ccc2c(c1)C(=O)[C@]1(O)CCN(c3ccc4ncc(N)cc4c3)C1=N2 [BPN-0028652] | 86.2 | 22.8 | 98.5 | 1.3 | 80 | 9.6
10 | Cc1cc2c(cc1C)C(=O)[C@]1(O)CCN(c3cnc(C)c(C)c3)C1=N2 [BPN-0028694] | 55.3 | 11.2 | 98.0 | 1.7 | 16 | 8.4
11 | Cc1cc(C)c2c(c1)N=C1N(c3ccc4ncccc4c3)CC[C@@]1(O)C2=O [BPN-0028697] | 88.4 | 25.4 | 97.3 | 1.9 | 60 | 7.5
12 | Cc1cc2c(cc1C)C(=O)[C@]1(O)CCN(c3cnc(C)c(C)c3)C1=N2 [BPN-0028731] | 37.6 | 7.4 | >99 | 2.2 | 40 | 7.7
13 | Cc1cc2c(cc1C)C(=O)[C@]1(O)CCN(c3cnc(CO)c(C)c3)C1=N2 [BPN-0028733] | 82.1 | 14.8 | 96.6 | 6.8 | 27 | 3.1
14 | Cc1cc2c(cc1C)C(=O)[C@]1(O)CCN(c3cnc4c(c3)NCCO4)C1=N2 [BPN-0028734] | 76 | <1 | 96.3 | 2.9 | 15 | 5.0
15 | Cc1cc2c(cc1C)C(=O)[C@]1(O)CCN(c3ccc4ncc(CO)cc4c3)C1=N2 [BPN-0028736] | 64 | 2 | 95.3 | 1.5 | 90 | 6.9
16 | Cc1cc2c(cc1C)C(=O)[C@]1(O)CCN(c3ccc4c(c3)COCCN4)C1=N2 [BPN-0028758] | 90.9 | 55.3 | 93.3 | 40 | 210 | 4.1
17 | Cc1cc2c(cc1C)C(=O)[C@]1(O)CCN(c3cnc(C#N)c(C)c3)C1=N2 [BPN-0028760] | 87.9 | 83 | 87.6 | 0.94 | 16 | 4.3
18 | Cc1cc2c(cc1C)C(=O)[C@]1(O)CCN(c3ccc4c(c3)NCCO4)C1=N2 [BPN-0028790] | 92.7 | 64 | 95.3 | 1 | 2.4 | 3.8
19 | COc1ncc(N2CC[C@@]3(O)C(=O)c4cc(C)c(C)cc4N=C23)cc1Cl [BPN-0028820] | 80.9 | 62.7 | 94.2 | 3 |  | NMII-sel
20 | Cc1cc2c(cc1C)C(=O)[C@]1(O)CCN(c3cnc4c(c3)OCCN4)C1=N2 [BPN-0028821] | 89.8 | 29.1 | 98.5 | 0.77 | 12 | 12.5
21 | Cc1ccc2cc(N3CC[C@@]4(O)C(=O)c5sc(C)cc5N=C34)ccc2n1 [BPN-0028863] | 98.8 | 94.7 | 99 | 2.8 |  | NMII-sel
22 | CCc1cc(N2CC[C@@]3(O)C(=O)c4cc(C)c(C)cc4N=C23)ccn1 [BPN-0028864] | 97.4 | 88.4 | 98.4 | 12 |  | NMII-sel
23 | Cc1cc2c(cc1C)C(=O)[C@]1(O)CCN(c3ccc4ncc(CN(C)C)cc4c3)C1=N2 [BPN-0028866] | 77.8 | 2.9 | 97.8 | 400 |  | NMII-sel
24 | CCc1ccc2cc(N3CC[C@@]4(O)C(=O)c5cc(C)c(C)cc5N=C34)ccc2n1 [BPN-0028867] | 69.9 | 1 | 98.7 | 1.3 |  | NMII-sel
25 | Cc1cc2c(cc1C)C(=O)[C@]1(O)CCN(c3ccc4nc(C)c(C)cc4c3)C1=N2 [BPN-0028868] | 46.7 | 43.3 | 98.9 | 0.23 | 24 | 31.6
